Earlier results in paper PMC4026281 (Journal of neurochemistry, 2012).

Test system: rat α6/3β2 chimeric nAChRs
Settings: cited from earlier work

α-conotoxin MII [α-CtxMII]
t1/2 of recovery from α-CtxMII inhibition, rat α6/3β2 chimeric nAChRs: > 20 min
